# Test results from PubChem BioAssay (NCI).
#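 These data come from cells grown in 96-well plates and exposed to compound for 48 hours at five concentrations. The concentration for full growth arrest is given as TGI.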
# Tested on: SN12K1 renal
# Assay: NCI tumour cell line growth inhibition, 48 h
structure (smiles),measurement,value
CN(C)CC1CCCC(CN(C)C)C1=O (stereo unspecified),TGI,30.4 µM
